From patent US20230159467A1, “NOVEL COMPOUNDS USEFUL IN THE TREATMENT AND/OR PREVENTION OF A DISEASE, DISORDER OR CONDITION ASSOCIATED WITH ANGIOTENSIN II” (Vicore Pharma AB, priority 2020, published 2023)

Experiments:
[1] = target: T1, human AT1R (Homo sapiens, UniProt P30556); format: binding; conditions: HEK-293 cell membranes
T1 construct: host or cells: HEK-293
T1 sequence (P30556 1-359): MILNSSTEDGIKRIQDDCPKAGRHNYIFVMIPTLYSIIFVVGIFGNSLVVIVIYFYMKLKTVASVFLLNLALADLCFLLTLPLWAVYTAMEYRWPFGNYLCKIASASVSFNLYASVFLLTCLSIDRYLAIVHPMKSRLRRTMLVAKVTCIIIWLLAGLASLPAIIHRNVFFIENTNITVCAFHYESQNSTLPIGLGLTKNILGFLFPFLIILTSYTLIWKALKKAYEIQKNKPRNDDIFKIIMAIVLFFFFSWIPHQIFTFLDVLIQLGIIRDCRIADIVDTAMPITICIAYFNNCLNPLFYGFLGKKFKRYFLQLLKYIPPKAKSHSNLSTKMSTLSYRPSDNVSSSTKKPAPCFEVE

[2] = target: T2, human AT2R (Homo sapiens, UniProt P50052); format: binding; conditions: HEK-293 cell membranes
T2 construct: host or cells: HEK-293
T2 sequence (P50052 1-363): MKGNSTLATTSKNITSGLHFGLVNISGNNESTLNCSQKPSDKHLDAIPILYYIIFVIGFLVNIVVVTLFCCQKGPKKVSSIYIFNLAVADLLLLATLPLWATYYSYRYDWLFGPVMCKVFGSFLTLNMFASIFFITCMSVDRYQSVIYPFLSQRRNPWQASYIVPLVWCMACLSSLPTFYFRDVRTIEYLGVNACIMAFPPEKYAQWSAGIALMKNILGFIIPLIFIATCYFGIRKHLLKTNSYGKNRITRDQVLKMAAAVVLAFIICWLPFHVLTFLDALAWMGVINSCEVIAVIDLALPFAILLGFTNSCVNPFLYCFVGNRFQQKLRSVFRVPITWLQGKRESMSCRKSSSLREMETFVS

[3] = Stability in human liver microsomes; format: in vitro ADME; conditions: half-life
Method: Stability in liver microsomes. Human, mouse and rat liver microsomes were used to assess the metabolic stability for the compounds. Metabolic stability was determined in 0.5 mg/mL human, mouse or rat liver microsomes at a compound concentration of 1 μM in 100 mM potassium phosphate buffer (pH 7.4) in a total incubation volume of 500 μL by Eurofins. The assay matrix was: human liver microsomes: mixed gender and pool of 50, rat liver microsomes: male, Sprague-Dawley, pool of 100 or more and mouse liver microsomes: male,CD-1, pool of 250 or more. Final microsomal protein concentration: 0.1mg/mL. The test concentration was 0.1 μM with 0.01% DMSO, 0.25% acetonitrile and 0.25% methanol by default. […] The reaction was initiated by adding NADPH-generating system and was incubated for 0, 15, 30, 45, and 60 min. The reaction was stopped by transferring the incubation mixture to acetonitrile/methanol. Samples were then mixed and centrifuged. Four reference compounds were tested in each assay. Propranolol and imipramine are relatively stable, whereas verapamil and terfenadine are readily metabolized inhuman liver microsomes. Samples were analyzed by HPLC-MS/MS using selected reaction monitoring. The HPLC system consisted of a binary LC pump with autosampler, a C-18 column, and a gradient. Peak areas corresponding to the test compound were recorded. The compound remaining was calculated by comparing the peak area at each time point to time zero. The half-life was calculated from the slope of the initial linear range of the logarithmic curve of compound remaining (%) vs. time, assuming first order kinetics. In addition, the intrinsic clearance (Clint) was calculated.^19,20

SMILES | Ki [1] [nM] | Ki [2] [nM] | Stability in liver microsomes HLM [3] [min]
CCCCOC(=O)NS(=O)(=O)c1sc(CCC)nc1-c1ccc(Cn2ccnc2-c2nccs2)cc1 [Example 21, Butyl ((2-propyl-4-(4-((2-(thiazol-2-yl)-1H-imidazol-1-yl)methyl)phenyl)thiazol-5-yl)sulfonyl)carbamate] | 1000 | 350 | 
CCCCOC(=O)NS(=O)(=O)c1sc(CCC)nc1-c1ccc(Cn2ccnc2C(C)(C)C)cc1 [Example 6, Butyl ((4-(4-((2-(tert-butyl)-1H-imidazol-1-yl)methyl)phenyl)-2-propylthiazol-5-yl)sulfonyl) carbamate] | ~1000 | 71 | 
COC(=O)NS(=O)(=O)c1ccc(CC(C)C)cc1-c1ccc(Cn2ccnc2C(C)C)cc1 [Example 36, Methyl ((5-isobutyl-4′-((2-(isopropan-2-yl)-1H-imidazol-1-yl)methyl)-[1,1′-biphenyl]-2-yl)sulfonyl)carbamate] |  | 3.26 | 
COC(=O)NS(=O)(=O)c1sc(CC(C)C)cc1-c1ccc(Cn2ccnc2C(C)(C)F)cc1 [Example 43] |  | 3.74 | 
CCCc1nc(-c2ccc(Cn3ccnc3C(C)(C)C)cc2)c(S(=O)(=O)NC(=O)OC)s1 [Example 5, Methyl ((4-(4-((2-(tert-butyl)-1H-imidazol-1-yl)methyl)phenyl)-2-propylthiazol-5-yl)sulfonyl)carbamate] | ~1000 | 190 | 
CCCc1nc(-c2ccc(Cn3ccnc3C(C)O)cc2)c(S(=O)(=O)NC(=O)OC)s1 (centres unmarked) [Example 25, Methyl ((4-(4-((2-(1-hydroxyethyl)-1H-imidazol-1-yl)methyl)phenyl)-2-propylthiazol-5-yl)sulfonyl)carbamate] |  | 1600 | 
CCCCOC(=O)NS(=O)(=O)c1sc(CCC)nc1-c1ccc(Cn2ccnc2C(C)(C)F)cc1 [Example 45, Butyl ((4-(4-((2-(2-fluoropropan-2-yl)-1H-imidazol-1-yl)methyl)phenyl)-2-propylthiazol-5-yl)sulfonyl)carbamate] |  | > 1000 | 
COC(=O)NS(=O)(=O)c1sc(CC(C)C)nc1-c1ccc(Cn2ccnc2C2CC2)cc1 [Example 26, Methyl ((4-(4-((2-cyclopropyl-1H-imidazol-1-yl)methyl)phenyl)-2-isobutylthiazol-5-yl)sulfonyl)carbamate] | 13000 | 99 | 
CCCCOC(=O)NS(=O)(=O)c1ccc(CC(C)C)cc1-c1ccc(Cn2ccnc2C(C)C)cc1 [Example 37A, Butyl ((5-isobutyl-4′-((2-(isopropan-2-yl)-1H-imidazol-1-yl)methyl)-[1,1′-biphenyl]-2-yl)sulfonyl)carbamate] |  | 2.22 | 
COC(=O)NS(=O)(=O)c1sc(CC(C)C)cc1-c1ccc(Cn2ccnc2C(C)(C)O)cc1 [Example 41] |  | 3.08 | 
CCCCOC(=O)NS(=O)(=O)c1sc(CC(C)C)nc1-c1ccc(Cn2ccnc2C(C)C)cc1 [Example 18, Butyl ((2-isobutyl-4-(4-((2-isopropyl-1H-imidazol-1-yl)methyl)phenyl)thiazol-5-yl)sulfonyl)carbamate] | 1000 | 5.8 | >60
COC(=O)NS(=O)(=O)c1sc(CC(C)C)nc1-c1ccc(Cn2ccnc2C(C)(C)F)cc1 [Example 48, Methyl ((4-(4-((2-(2-fluoropropan-2-yl)-1H-imidazol-1-yl)methyl)phenyl)-2-isobutylthiazol-5-yl)sulfonyl)carbamate] |  | 475 | 
COCCOC(=O)NS(=O)(=O)c1sc(CC(C)C)cc1-c1ccc(Cn2ccnc2C(C)(C)C)cc1 [Example 44] |  | 2.54 | 
CCCCOC(=O)[N-]S(=O)(=O)c1ccc(CCC)cc1-c1ccc(Cn2ccnc2C(C)(C)O)cc1.[K+] [Example 31B, Potassium (butoxycarbonyl) ((4′-((2-(2-hydroxypropan-2-yl)-1H-imidazol-1-yl)methyl)-5-propyl-[1,1′-biphenyl]-2-yl)sulfonyl)amide] |  |  | 20
CCCCOC(=O)NS(=O)(=O)c1ccc(CC(C)C)cc1-c1ccc(Cn2ccnc2C(C)(C)C)cc1 [Example 2A, Butyl ((4′-((2-(tert-butyl)-1H-imidazol-1-yl)methyl)-5-isobutyl-[1,1′-biphenyl]-2-yl)sulfonyl)carbamate] | ~10000 | 15 | 
CCCc1nc(-c2ccc(Cn3ccnc3C3CC3)cc2)c(S(=O)(=O)NC(=O)OC)s1 [Example 28, Methyl ((4-(4-((2-cyclopropyl-1H-imidazol-1-yl)methyl)phenyl)-2-propylthiazol-5-yl)sulfonyl)carbamate] | 20000 | 274 | 
CCCCOC(=O)NS(=O)(=O)c1sc(CCC)nc1-c1ccc(Cn2ccnc2C2CC2)cc1 [Example 29, Butyl ((4-(4-((2-cyclopropyl-1H-imidazol-1-yl)methyl)phenyl)-2-propylthiazol-5-yl)sulfonyl)carbamate] | 15000 | 36 | 
CCCCOC(=O)NS(=O)(=O)c1sc(CC(C)C)nc1-c1ccc(Cn2ccnc2C2CC2)cc1 [Example 27, Butyl ((4-(4-((2-cyclopropyl-1H-imidazol-1-yl)methyl)phenyl)-2-isobutylthiazol-5-yl)sulfonyl)carbamate] | 8000 | 11 | 
CCCCOC(=O)NS(=O)(=O)c1sc(CC(C)C)cc1-c1ccc(Cn2ccnc2C(C)(C)F)cc1 [Example 42] |  | 1.66 | 
CCCCOC(=O)NS(=O)(=O)c1sc(CC(C)C)nc1-c1ccc(Cn2ccnc2C(C)(C)F)cc1 [Example 47, Butyl ((4-(4-((2-(2-fluoropropan-2-yl)-1H-imidazol-1-yl)methyl)phenyl)-2-isobutylthiazol-5-yl)sulfonyl)carbamate] |  | 56 | 
COC(=O)NS(=O)(=O)c1sc(CC(C)C)nc1-c1ccc(Cn2ccnc2C(C)O)cc1 (centres unmarked) [Example 23, Methyl ((4-(4-((2-(1-hydroxyethyl)-1H-imidazol-1-yl)methyl)phenyl)-2-isobutylthiazol-5-yl)sulfonyl)carbamate] |  |  | >60
COC(=O)NS(=O)(=O)c1ccc(CC(C)C)cc1-c1ccc(Cn2ccnc2C2CC2)cc1 [Example 39A, Methyl ((5-isobutyl-4′-((2-(cyclopropan-2-yl)-1H-imidazol-1-yl)methyl)-[1,1′-biphenyl]-2-yl)sulfonyl)carbamate] |  | 4.8 | 
CCCCOC(=O)NS(=O)(=O)c1ccc(CC(C)C)cc1-c1ccc(Cn2ccnc2C2CC2)cc1 [Example 38A, Butyl ((5-isobutyl-4′-((2-(cyclopropan-2-yl)-1H-imidazol-1-yl)methyl)-[1,1′-biphenyl]-2-yl)sulfonyl)carbamate] |  | 5.64 | 
CCCCOC(=O)NS(=O)(=O)c1sc(CC(C)C)cc1-c1ccc(Cn2ccnc2C(C)(C)O)cc1 [Example 40A] |  | 9.62 | 
CCCCOC(=O)NS(=O)(=O)c1ccc(CC(C)C)cc1-c1ccc(Cn2ccnc2-c2nccs2)cc1 [Example 35B, Potassium (butoxycarbonyl) ((5-isobutyl-4′-((2-(thiazol-2-yl)-1H-imidazolyl)methyl)-[1,1′-biphenyl]-2-yl)sulfonyl)amide] | 7000 | 6.7 | 
CCCc1nc(-c2ccc(Cn3ccnc3C(C)(C)F)cc2)c(S(=O)(=O)NC(=O)OC)s1 [Example 46, Methyl ((4-(4-((2-(2-fluoropropan-2-yl)-1H-imidazol-1-yl)methyl)phenyl)-2-propylthiazol-5-yl)sulfonyl)carbamate] |  | > 1000 | 
COC(=O)NS(=O)(=O)c1sc(CC(C)C)nc1-c1ccc(Cn2ccnc2C(C)C)cc1 [Example 20, Methyl ((2-isobutyl-4-(4-((2-isopropyl-1H-imidazol-1-yl)methyl)phenyl)thiazol-5-yl)sulfonyl)carbamate] |  | 27 | >60
CCCCOC(=O)NS(=O)(=O)c1sc(CCC)nc1-c1ccc(Cn2ccnc2C(C)C)cc1 [Example 15, Butyl ((4-(4-((2-isopropyl-1H-imidazol-1-yl)methyl)phenyl)-2-propylthiazol-5-yl)sulfonyl)carbamate] |  | 39 | >60
